This note sets out measurements from paper PMC7429951 (Journal of Medicinal Chemistry, 2020).

Where only a bound is given, the exact number is not on record here.

In data set [1] the target is peptidase domain of ColH (ColH-PD) (Hathewaya histolytica, UniProt Q46085). The data set can be described thus: biochemical. Further details: species or system Clostridium histolyticum.
The next data set deals with ColQ1 (Bacillus cereus, UniProt B9J3S4). Kind of data set: Ex vivo pig-skin model, hydroxyproline quantification. The conditions noted are these: pig-skin explants, 300 nM ColQ1, defined concentrations of compound, vs control. More on the design: species or system B. cereus. An excerpt: We established an ex vivo model based on pig skin to address the impact of our inhibitors on living mammalian tissue and on the contained collagen as the natural substrate of collagenase. We challenged the skin, prepared from the ear of freshly slaughtered pigs, with pure ColQ1 from B. cereus to degrade collagen. We assessed the activity of ColQ1 by quantifying the formation of hydroxyproline as an indicator for collagen turnover (Figure 4). Optimization of the assay conditions for the model consisted of examining different buffer conditions and different protein concentrations (Figures S1 and S2). To evaluate the potential effect of 25 on collagen turnover, we incubated the skin with ColQ1 in the absence and presence of defined concentrations of this compound. […] The good performance of our inhibitors in this model is a sound starting point for their subsequent testing under in vivo conditions. We expect that our inhibitors will accelerate the in vivo healing process, by preventing the distribution of infection. […]
Sequence of ColQ1 (B9J3S4 94-965): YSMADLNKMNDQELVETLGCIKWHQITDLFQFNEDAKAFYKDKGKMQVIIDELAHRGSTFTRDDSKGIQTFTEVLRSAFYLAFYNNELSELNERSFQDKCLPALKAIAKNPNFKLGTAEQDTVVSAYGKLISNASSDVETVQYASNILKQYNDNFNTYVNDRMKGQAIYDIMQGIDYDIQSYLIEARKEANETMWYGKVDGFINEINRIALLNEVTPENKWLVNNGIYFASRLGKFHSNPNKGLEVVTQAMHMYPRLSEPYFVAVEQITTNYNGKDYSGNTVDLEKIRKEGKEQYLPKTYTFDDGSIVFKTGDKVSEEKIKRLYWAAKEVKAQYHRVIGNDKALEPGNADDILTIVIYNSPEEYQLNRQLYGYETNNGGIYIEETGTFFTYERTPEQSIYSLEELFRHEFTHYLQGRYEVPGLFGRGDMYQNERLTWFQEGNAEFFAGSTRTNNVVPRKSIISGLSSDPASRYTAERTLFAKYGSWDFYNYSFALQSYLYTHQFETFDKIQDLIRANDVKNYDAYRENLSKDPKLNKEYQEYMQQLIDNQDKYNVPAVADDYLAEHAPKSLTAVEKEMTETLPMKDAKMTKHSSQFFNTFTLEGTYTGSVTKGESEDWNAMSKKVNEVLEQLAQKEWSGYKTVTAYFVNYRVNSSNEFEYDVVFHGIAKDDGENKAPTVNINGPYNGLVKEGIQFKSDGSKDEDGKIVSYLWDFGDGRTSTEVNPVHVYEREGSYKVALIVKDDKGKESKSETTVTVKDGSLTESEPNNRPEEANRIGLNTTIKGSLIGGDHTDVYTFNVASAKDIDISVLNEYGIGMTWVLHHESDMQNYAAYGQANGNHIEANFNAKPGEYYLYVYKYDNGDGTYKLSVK
Skin explants were obtained from freshly slaughtered pig ears, which were supplied by a local slaughterhouse. […] Absorbance was measured using a PHERAstar plate reader (BMG Labtech). The absorbance values were converted into the hydroxyproline concentration (μg/mL) using the calibration curve of hydroxyproline as a reference (Figure S3).

The target in another data set is MMP-3 (Homo sapiens, UniProt P08254). The data set can be described thus: MMP-3 off-target inhibition. The format is biochemical. The settings on record: read-out: MMP-3 % inhibition @ 100 μM; 100 μM compound. The source says: (§1) Previously, we described N-aryl mercaptoacetamides with high selectivity for the bacterial over a broad range of human MMPs.[29],[30] MMPs are calcium-dependent zinc metalloproteases that play a pivotal role in numerous biochemical processes in humans.[39],[40] Based on the depth of their S1′ binding pocket, MMPs can be divided into three classes: deep (e.g., MMP-3 and -14), intermediate (e.g., MMP-2 and -8), and shallow (e.g., MMP-1 and -7). With the aim to explore the interactions of our inhibitors with all three pocket types, which could help us to assess potential effects on other not-tested representatives, we chose a panel of six MMPs, comprising two members of each class. In addition, HDAC-3, HDAC-8, and TACE (ADAM-17)—enzymes involved in gene expression and the processing of TNF-α,[41],[42] respectively—were selected as important additional human off-targets.
Sequence of MMP-3 (P08254 100-477): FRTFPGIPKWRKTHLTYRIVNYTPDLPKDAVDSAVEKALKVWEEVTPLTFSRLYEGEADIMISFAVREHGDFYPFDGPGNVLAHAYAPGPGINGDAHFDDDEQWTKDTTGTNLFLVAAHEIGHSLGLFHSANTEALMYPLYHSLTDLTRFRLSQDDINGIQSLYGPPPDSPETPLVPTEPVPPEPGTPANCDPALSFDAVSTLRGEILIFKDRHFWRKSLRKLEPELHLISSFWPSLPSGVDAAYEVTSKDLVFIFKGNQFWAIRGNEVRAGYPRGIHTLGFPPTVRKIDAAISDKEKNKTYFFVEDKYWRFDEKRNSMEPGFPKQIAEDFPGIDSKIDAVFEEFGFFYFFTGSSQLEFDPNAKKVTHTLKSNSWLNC

Another data set has as its target MMP-8 (Homo sapiens, UniProt P22894). Kind of data set: MMP-8 off-target inhibition. Type of data set: biochemical.
Source text: as §1

The nature of data set [2]: in vitro. The settings on record: human, HEK293 cells (embryonal kidney).
Data set [3] deals with peptidase domain of ColT (ColT-PD) (Clostridium tetani, UniProt Q899Y1). Kind of data set: biochemical. Further details: species or system C. tetani. The settings on record: read-out: ColT-PD % inhibition @ 100 μM.
Sequence of peptidase domain of ColT (ColT-PD) (Q899Y1 340-731 limits assumed): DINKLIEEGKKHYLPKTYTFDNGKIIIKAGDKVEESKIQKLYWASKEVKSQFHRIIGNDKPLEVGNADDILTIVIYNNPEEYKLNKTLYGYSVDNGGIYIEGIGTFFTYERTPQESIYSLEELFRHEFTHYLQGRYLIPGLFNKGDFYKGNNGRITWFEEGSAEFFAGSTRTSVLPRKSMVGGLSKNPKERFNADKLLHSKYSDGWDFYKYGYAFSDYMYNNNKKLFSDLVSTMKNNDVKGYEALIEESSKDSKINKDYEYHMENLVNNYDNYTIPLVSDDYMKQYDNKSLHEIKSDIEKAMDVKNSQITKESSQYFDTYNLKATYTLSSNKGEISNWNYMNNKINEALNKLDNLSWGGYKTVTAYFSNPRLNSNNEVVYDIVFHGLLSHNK
The target in another data set is MMP-14 (Homo sapiens, UniProt P50281). The data set can be described thus: MMP-14 off-target inhibition. Type of data set: biochemical.
Source text: as §1

A short description of data set [4]: in vitro. The settings on record: human, HepG2 cells (hepatocellular carcinoma).
The target of data set [5] is T1, collagenase unit of ColQ1 (ColQ1-CU) (Bacillus cereus, UniProt B9J3S4).
T1 construct: the collagenase unit of ColQ1 (ColQ1-CU) from B. cereus strain Q1
T1 sequence (B9J3S4 94-765 limits assumed): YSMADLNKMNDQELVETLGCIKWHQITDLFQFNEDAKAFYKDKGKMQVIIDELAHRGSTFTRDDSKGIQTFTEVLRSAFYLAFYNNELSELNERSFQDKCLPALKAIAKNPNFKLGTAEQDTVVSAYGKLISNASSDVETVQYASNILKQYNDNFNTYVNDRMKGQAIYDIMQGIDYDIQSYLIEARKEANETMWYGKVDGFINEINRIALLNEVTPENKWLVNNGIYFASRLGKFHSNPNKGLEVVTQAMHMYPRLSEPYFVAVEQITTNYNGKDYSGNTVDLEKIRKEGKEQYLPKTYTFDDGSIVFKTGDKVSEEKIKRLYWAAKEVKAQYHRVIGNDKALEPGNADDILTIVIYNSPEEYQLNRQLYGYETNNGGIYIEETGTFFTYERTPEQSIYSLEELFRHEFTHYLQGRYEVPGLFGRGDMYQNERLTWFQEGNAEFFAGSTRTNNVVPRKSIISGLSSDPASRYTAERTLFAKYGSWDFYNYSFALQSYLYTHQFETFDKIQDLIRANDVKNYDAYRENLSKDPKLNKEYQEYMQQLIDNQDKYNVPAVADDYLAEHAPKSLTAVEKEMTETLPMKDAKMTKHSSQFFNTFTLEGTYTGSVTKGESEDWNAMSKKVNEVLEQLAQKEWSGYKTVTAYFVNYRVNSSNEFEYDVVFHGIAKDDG
Kind of data set: biochemical. The conditions noted are these: read-out: ColQ1-CU % inhibition @ 100 μM. Further details: species or system B. cereus strain Q1.

The target of the next data set is T2, HDAC-8 (Homo sapiens, UniProt Q9BY41).
T2 construct: purchased Sigma-Aldrich (Saint Louis, MO)
T2 sequence (Q9BY41 1-377): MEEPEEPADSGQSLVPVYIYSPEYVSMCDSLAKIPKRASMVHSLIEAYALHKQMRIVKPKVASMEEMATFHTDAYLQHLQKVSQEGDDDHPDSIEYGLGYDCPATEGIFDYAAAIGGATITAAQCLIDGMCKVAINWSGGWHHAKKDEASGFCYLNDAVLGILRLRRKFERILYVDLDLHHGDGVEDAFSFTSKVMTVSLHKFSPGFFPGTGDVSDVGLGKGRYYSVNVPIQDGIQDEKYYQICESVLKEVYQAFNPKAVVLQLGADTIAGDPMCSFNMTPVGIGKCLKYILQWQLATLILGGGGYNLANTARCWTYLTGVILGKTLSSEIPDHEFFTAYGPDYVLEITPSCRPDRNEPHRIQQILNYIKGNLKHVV
The data set can be described thus: HDAC-8 inhibitor screening kit. Type of data set: biochemical.
Source text: as §1

Sequence of peptidase domain of ColH (ColH-PD) (Q46085 331-721 limits assumed): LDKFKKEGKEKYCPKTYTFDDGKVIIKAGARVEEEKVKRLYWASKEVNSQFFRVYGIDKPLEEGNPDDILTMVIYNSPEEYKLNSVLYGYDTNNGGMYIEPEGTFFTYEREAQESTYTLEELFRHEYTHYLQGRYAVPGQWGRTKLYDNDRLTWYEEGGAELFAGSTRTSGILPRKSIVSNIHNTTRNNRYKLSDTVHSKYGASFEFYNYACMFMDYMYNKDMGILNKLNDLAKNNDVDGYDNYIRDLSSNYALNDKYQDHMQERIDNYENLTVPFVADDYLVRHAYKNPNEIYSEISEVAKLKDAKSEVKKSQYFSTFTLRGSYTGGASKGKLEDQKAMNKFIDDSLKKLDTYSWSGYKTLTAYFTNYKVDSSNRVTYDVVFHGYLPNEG
Sequence of MMP-8 (P22894 101-467): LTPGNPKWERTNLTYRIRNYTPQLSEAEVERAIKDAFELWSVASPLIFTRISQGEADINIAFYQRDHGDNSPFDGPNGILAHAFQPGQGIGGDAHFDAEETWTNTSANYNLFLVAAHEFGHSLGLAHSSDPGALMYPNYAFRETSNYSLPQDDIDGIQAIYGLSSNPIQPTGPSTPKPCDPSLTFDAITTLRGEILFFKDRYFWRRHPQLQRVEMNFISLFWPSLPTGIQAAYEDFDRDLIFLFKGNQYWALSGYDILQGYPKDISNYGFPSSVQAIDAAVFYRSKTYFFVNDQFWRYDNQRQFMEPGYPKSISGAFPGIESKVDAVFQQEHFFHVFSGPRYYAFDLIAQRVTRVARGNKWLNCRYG

As a reminder, the IC50 is the concentration that gives 50% inhibition. A low value points to higher potency. For `CC(=O)c1ccc(N2C(=O)CC(S)C2=O)cc1` (centres unmarked) [Compound 25, 1-(4-Acetylphenyl)-3-mercaptopyrrolidine-2,5-dione], the IC50 was 0.06 ± 0.01 µM in data set [1], above 100 µM in “in vitro [2]”, above 100 µM in “in vitro [4]” and above 100 µM against HDAC-8. Also, in data set [1] (read-out: ColH-PD % inhibition @ 1 μM), the inhibition at 1 µM worked out at 95%. In addition, the inhibition at 100 µM in [1] (read-out: ColH-PD % inhibition @ 100 μM) was 96 ± 2%; on MMP-3, below 10%; on MMP-8 (read-out: MMP-8 % inhibition @ 100 μM, 100 μM compound), 94 ± 1%; in data set [3], 102 ± 3%; on MMP-14 (read-out: MMP-14 % inhibition @ 100 μM, 100 μM compound), 84 ± 8%; in [5], 99 ± 2%. The “hydroxyproline released (collagenolytic activity of ColQ1)” value at ColQ1 is “significantly reduced amount of hydroxyproline released compared to control”. Moreover, the inhibition at 50 µM on MMP-8 (50 µM compound, read-out: MMP-8 % inh @50µM) was below 10%; at MMP-14 (50 µM compound, read-out: MMP-14 % inh @50µM), below 10%.
